Reference: PubChem BioAssay AID1963961 (Molecular Pharmacology Branch, DTP, NCI, 2024)

Tested on: K98450-129-R-PDC multicell spheroids, viability
Test: Anticancer human tumor K98450-129-R-PDC patient-derived colon adenocarcinoma cell line growth inhibition [PI3K]
Details: for viability, T/C: stronger effect = lower value; active = viability on the fitted dose curve at most 10% of control; inactive = the rest
Text: Combinatorial screen of targeted agents with the PI3K inhibitors inavolisib, alpelisib, duvelisib, and copanlisib in multi-cell type tumor spheroids
A high-throughput screen of multi-cell type tumor spheroids was designed to identify active combinations of targeted small molecules and PI3K pathway inhibitors. Complex spheroids include a stromal component modeled by human endothelial cells (HUVEC) and fibroblasts modeled by human mesenchymal stem cells (MSCs). The concentration ranges selected for each drug and investigational agent were based upon clinically achievable concentrations if the clinical Cmax of the agent was known.
Compounds. The drugs and investigational agents: inavolisib (NSC800729), alpelisib (NSC765974), duvelisib (NSC772469), copanlisib (NSC816437), ipatasertib (NSC767898), afuresertib (NSC778305), talazoparib (NSC767125), sapanisertib (NSC764658), selumetinib (NSC741078), tovorafenib (DAY101, NSC766906), vemurafenib (NSC761431), ravoxertinib (NSC781343), sotorasib (NSC818433), MRTX1133 (NSC 836407), abemaciclib (NSC 768073), palbociclib (NSC758247), venetoclax (NSC 766270), SY5609 (NSC837396), enzalutamide (NSC755605), and darolutamide (NSC825331), were obtained from the National Cancer Institute (NCI) Developmental Therapeutics Program Chemical Repository. The FDA-approved anticancer drug set is available from the NCI Developmental Therapeutics Program. […] The stock solutions were prepared in dimethyl sulfoxide (DMSO, Sigma-Aldrich, St. Louis, MO, cat. D2650) at 800-fold the tested concentration and stored at -70 degrees C prior to their use. All drugs and investigational agents were tested over a range starting from a high concentration at or near the clinical Cmax and decreasing in half-log increments. If the clinical Cmax for an agent had not been determined, the highest concentration tested was 10 microM.
Cell Culture. All cells were maintained in an incubator at 37 degrees C and 5% CO2 with 95% humidity. The PDC lines were cultured according to standard operating procedures established by the NCI PDMR (https://pdmr.cancer.gov/sops/default.htm). All PDCs were thawed and cultured in Matrigel-coated flasks prepared with a working solution of 1X Ham's F-12 nutrient mix, without supplementation (Invitrogen, Waltham, MA, cat. 11765054), 100 U/mL penicillin-streptomycin (Invitrogen, cat. 15140122), and 2.5% Matrigel (Corning Inc., Corning, NY, cat. 354248) for the first three passages. The 354836-022-R-J1-PDC, 475296-252-R-J1-PDC, and 997726-040-R-J2-PDC lines were cultured in 6A media, which includes advanced DMEM/F-12 (Thermo Fisher Scientific, cat. 12634028), 10 mM HEPES (Thermo Fisher Scientific, cat. 15630080), 1X GlutaMAX supplement (Thermo Fisher Scientific, cat. 35050061), 0.1 mg/mL primocin (InvivoGen, San Diego, CA, cat. ant-pm-2), 10% defined fetal bovine serum, heat inactivated (HyClone Laboratories Inc., Logan, UT, cat. SH30070.03HI), 50% L-WRN conditioned media (ATCC, cat. CRL-3276), 1.25 mM N-Acetyl-L-cysteine (Sigma-Aldrich, cat. A9165), 10 mM nicotinamide (Sigma-Aldrich, cat. N0636), 1X B-27 supplement (Thermo Fisher Scientific, cat. 17504044), 1X N-2 supplement (Thermo Fisher Scientific, cat. 17502048), and 10 microM Y-27632 dihydrochloride (Tocris Bioscience, Bristol, United Kingdom, cat. 1254). The 624824-186-R-J2-PDC line was cultured in 6C/Colon 1B media, which includes all 6A media components plus 50 ng/mL human EGF recombinant protein (Thermo Fisher Scientific, cat. PHG0311). […]

[1] = curve of first compound, second compound 0.0316 µM
[2] = curve of first compound, second compound 0.1 µM
[3] = curve of first compound, second compound 0.316 µM
[4] = curve of first compound, second compound 1 µM
[5] = curve of first compound, second compound 3.16 µM
[6] = curve of first compound, second compound 10 µM
[7] = second compound 0.0316 µM, first compound 0.0316 µM
[8] = second compound 0.0316 µM, first compound 0.1 µM
[9] = second compound 0.0316 µM, first compound 0.316 µM
[10] = second compound 0.0316 µM, first compound 1 µM
[11] = second compound 0.0316 µM, first compound 3.16 µM
[12] = second compound 0.0316 µM, first compound 10 µM
[13] = second compound 0.1 µM, first compound 0.0316 µM
[14] = second compound 0.1 µM, first compound 0.1 µM
[15] = second compound 0.1 µM, first compound 0.316 µM
[16] = second compound 0.1 µM, first compound 1 µM
[17] = second compound 0.1 µM, first compound 3.16 µM
[18] = second compound 0.1 µM, first compound 10 µM
[19] = second compound 0.316 µM, first compound 0.0316 µM
[20] = second compound 0.316 µM, first compound 0.1 µM
[21] = second compound 0.316 µM, first compound 0.316 µM
[22] = second compound 0.316 µM, first compound 1 µM
[23] = second compound 0.316 µM, first compound 3.16 µM
[24] = second compound 0.316 µM, first compound 10 µM
[25] = second compound 1 µM, first compound 0.0316 µM
[26] = second compound 1 µM, first compound 0.1 µM
[27] = second compound 1 µM, first compound 0.316 µM
[28] = second compound 1 µM, first compound 1 µM
[29] = second compound 1 µM, first compound 3.16 µM
[30] = second compound 1 µM, first compound 10 µM
[31] = second compound 3.16 µM, first compound 0.0316 µM
[32] = second compound 3.16 µM, first compound 0.1 µM
[33] = second compound 3.16 µM, first compound 0.316 µM
[34] = second compound 3.16 µM, first compound 1 µM
[35] = second compound 3.16 µM, first compound 3.16 µM
[36] = second compound 3.16 µM, first compound 10 µM
[37] = second compound 10 µM, first compound 0.0316 µM
[38] = second compound 10 µM, first compound 0.1 µM
[39] = second compound 10 µM, first compound 0.316 µM
[40] = second compound 10 µM, first compound 1 µM
[41] = second compound 10 µM, first compound 3.16 µM
[42] = second compound 10 µM, first compound 10 µM
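Note: spheroids exposed to agents for seven days before read-out.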

C#Cc1c(F)ccc2cc(O)cc(-c3ncc4c(N5CC6CCC(C5)N6)nc(OCC56CCCN5CC(F)C6)nc4c3F)c12 (stereo unspecified) + Cc1nc(NC(=O)N2CCCC2C(N)=O)sc1-c1ccnc(C(C)(C)C(F)(F)F)c1
> 10 µM: IC50 [1] | IC50 [2] | IC50 [3] | IC50 [4] | IC50 [5]
inactive: viability, T/C [7] 108% | viability, T/C [8] 97.4% | viability, T/C [9] 99.1% | viability, T/C [10] 95.5% | viability, T/C [11] 93.7% | viability, T/C [12] 83.2% | viability, T/C [13] 122% | viability, T/C [14] 97% | viability, T/C [15] 102% | viability, T/C [16] 88.7% | viability, T/C [17] 92.9% | viability, T/C [18] 82.2% | viability, T/C [19] 93.4% | viability, T/C [20] 96.2% | viability, T/C [21] 93.7% | viability, T/C [22] 83.8% | viability, T/C [23] 90.2% | viability, T/C [24] 77.7% | viability, T/C [25] 89.5% | viability, T/C [26] 92.4% | viability, T/C [27] 89% | viability, T/C [28] 85% | viability, T/C [29] 87.8% | viability, T/C [30] 76.5% | viability, T/C [31] 74.3% | viability, T/C [32] 78.9% | viability, T/C [33] 87.3% | viability, T/C [34] 75.3% | viability, T/C [35] 77.4% | viability, T/C [36] 63.5% | viability, T/C [37] 75.6% | viability, T/C [38] 69.2% | viability, T/C [39] 67.3% | viability, T/C [40] 63.1% | viability, T/C [41] 57.6% | viability, T/C [42] 47.3%
7.68 µM: IC50 [6]

CC(C)n1nc(-c2ccc3oc(N)nc3c2)c2c(N)ncnc21
inactive: viability, T/C (compound 0.000316 µM) 103% [middle of 4 runs] | viability, T/C (compound 0.001 µM) 104% [middle of 4 runs] | viability, T/C (compound 0.00316 µM) 99.9% [middle of 4 runs] | viability, T/C (compound 0.01 µM) 98.2% [middle of 4 runs] | viability, T/C (compound 0.0316 µM) 95.5% [middle of 4 runs] | viability, T/C (compound 0.1 µM) 78.2% [middle of 4 runs]
> 0.1 µM: IC50 (curve of compound)

C[C@@H](NC(=O)c1ncnc(N)c1Cl)c1ncc(C(=O)Nc2cc(C(F)(F)F)c(Cl)cn2)s1 + CC(Nc1ncnc2nc[nH]c12)c1cc2cccc(Cl)c2c(=O)n1-c1ccccc1
> 10 µM: IC50 [1] | IC50 [2] | IC50 [3] | IC50 [4] | IC50 [5] | IC50 [6]
inactive: viability, T/C [7] 113% | viability, T/C [8] 108% | viability, T/C [9] 117% | viability, T/C [10] 124% | viability, T/C [11] 109% | viability, T/C [12] 104% | viability, T/C [13] 123% | viability, T/C [14] 106% | viability, T/C [15] 119% | viability, T/C [16] 108% | viability, T/C [17] 123% | viability, T/C [18] 96% | viability, T/C [19] 107% | viability, T/C [20] 118% | viability, T/C [21] 103% | viability, T/C [22] 108% | viability, T/C [23] 126% | viability, T/C [24] 96.1% | viability, T/C [25] 115% | viability, T/C [26] 106% | viability, T/C [27] 102% | viability, T/C [28] 106% | viability, T/C [29] 126% | viability, T/C [30] 86.8% | viability, T/C [31] 92.3% | viability, T/C [32] 112% | viability, T/C [33] 95.8% | viability, T/C [34] 120% | viability, T/C [35] 123% | viability, T/C [36] 101% | viability, T/C [37] 95.5% | viability, T/C [38] 106% | viability, T/C [39] 90.9% | viability, T/C [40] 103% | viability, T/C [41] 124% | viability, T/C [42] 78%
